Read-outs that look alike come from different tables or passages of the source.
Key:
[1] = target: panel of 255 wild-type kinases (Homo sapiens, UniProt Q13177); experiment: Kinase panel profiling at 1 µmol/L (MSA or IMAP), percentage inhibition; type: biochemical; conditions: PAK2; 1 µmol/L single concentration; read-out: %-inhibition, PAK2
[2] = target: panel of 255 wild-type kinases (Homo sapiens, UniProt P45983); experiment: as above; type: biochemical; conditions: kinase JNK1; 1 µmol/L single concentration; read-out: %-inhibition at 1 µmol/L, JNK1
[3] = target: panel of 255 wild-type kinases (Homo sapiens, UniProt O75582); experiment: as above; type: biochemical; conditions: MSK1; 1 µmol/L single concentration; read-out: %-inhibition, MSK1
[4] = target: panel of 255 wild-type kinases (Homo sapiens, UniProt Q00526); experiment: as above; type: biochemical; conditions: CDK3/CycE1 kinase assay; 1 µmol/L single concentration; read-out: %-inhibition CDK3/CycE1
[5] = target: panel of 255 wild-type kinases (Homo sapiens, UniProt Q9HBH9); experiment: as above; type: biochemical; conditions: MNK2; 1 µmol/L single concentration; read-out: %-inhibition, MNK2
[6] = target: panel of 255 wild-type kinases (Homo sapiens, UniProt P50613); experiment: as above; type: biochemical; conditions: CDK7/CycH/MAT1 kinase assay; 1 µmol/L single concentration; read-out: %-inhibition CDK7/CycH/MAT1
[7] = target: panel of 255 wild-type kinases (Homo sapiens, UniProt P22607); experiment: as above; type: biochemical; conditions: kinase FGFR3; 1 µmol/L single concentration; read-out: %-inhibition at 1 µmol/L, FGFR3
[8] = target: panel of 255 wild-type kinases (Homo sapiens, UniProt P49760); experiment: as above; type: biochemical; conditions: kinase CLK2; 1 µmol/L single concentration; read-out: %-inhibition at 1 µmol/L, CLK2
[9] = target: panel of 255 wild-type kinases (Homo sapiens, UniProt Q96RG2); experiment: as above; type: biochemical; conditions: PASK; 1 µmol/L single concentration; read-out: %-inhibition, PASK
[10] = test system: 134 cancer cell lines; experiment: Cell viability assay (ATPlite, 72 hours), IC50 on cancer cell line panel

FC(F)(F)c1ccc(CNc2ccc(Cc3c[nH]c4ncc(Cl)cc34)cn2)cn1 [pexidartinib]
25.3 µM: IC50 ([10]; Homo sapiens, AN3-CA, read-out: IC50 in cell proliferation assay, cell line AN3-CA (FGFR2 p.N549K))
23.6 µM: IC50 ([10]; Homo sapiens, G-361, read-out: IC50 in cell proliferation assay, cell line G-361 (BRAF p.V600E))
7.51 µM: IC50 ([10]; Homo sapiens, KG-1, read-out: IC50 in cell proliferation assay, KG-1 cell line (FGFR1OP2-FGFR1))
-2.4%: inhibition at 1 µM [1]
25.7 µM: IC50 ([10]; Homo sapiens, Hs-578T, read-out: IC50 in cell proliferation assay, Hs 578T cell line)
> 31.6 µM: IC50 ([10]; HEC-6, read-out: IC50 in cell proliferation assay, HEC-6 cell line (EGFR p.A289V)) | IC50 ([10]; Homo sapiens, 769-P, read-out: IC50 in cell proliferation assay, cell line 769-P) | IC50 ([10]; Homo sapiens, 786-0, read-out: IC50 in cell proliferation assay, cell line 786-O) | IC50 ([10]; Homo sapiens, A 172, read-out: IC50 in cell proliferation assay, cell line A-172) | IC50 ([10]; Homo sapiens, A498, read-out: IC50 in cell proliferation assay, cell line A-498) | IC50 ([10]; Homo sapiens, A549, read-out: IC50 in cell proliferation assay, cell line A-549) | IC50 ([10]; Homo sapiens, A704, read-out: IC50 in cell proliferation assay, cell line A-704) | IC50 ([10]; Homo sapiens, A-375, read-out: IC50 in cell proliferation assay, cell line A-375 (BRAF p.V600E)) | IC50 ([10]; Homo sapiens, ACHN, read-out: IC50 in cell proliferation assay, cell line ACHN) | IC50 ([10]; Homo sapiens, ASPC1, read-out: IC50 in cell proliferation assay, cell line AsPC-1) | IC50 ([10]; Homo sapiens, BT-20, read-out: IC50 in cell proliferation assay, cell line BT-20) | IC50 ([10]; Homo sapiens, BT-474, read-out: IC50 in cell proliferation assay, cell line BT-474 (ERBB2 amplification)) | IC50 ([10]; Homo sapiens, BT-549, read-out: IC50 in cell proliferation assay, cell line BT-549) | IC50 ([10]; Homo sapiens, BXPC-3, read-out: IC50 in cell proliferation assay, cell line BxPC-3) | IC50 ([10]; Homo sapiens, C-33-A, read-out: IC50 in cell proliferation assay, cell line C-33 A) | IC50 ([10]; Homo sapiens, CAL-27, read-out: IC50 in cell proliferation assay, cell line CAL-27) | IC50 ([10]; Homo sapiens, CCF-STTG1, read-out: IC50 in cell proliferation assay, cell line CCF-STTG1) | IC50 ([10]; Homo sapiens, CCRF-CEM, read-out: IC50 in cell proliferation assay, cell line CCRF-CEM) | IC50 ([10]; Homo sapiens, COLO 205, read-out: IC50 in cell proliferation assay, cell line COLO 205 (BRAF p.V600E)) | IC50 ([10]; Homo sapiens, COLO-829, read-out: IC50 in cell proliferation assay, cell line COLO 829 (BRAF p.V600E)) | IC50 ([10]; Homo sapiens, DLD-1, read-out: IC50 in cell proliferation assay, cell line DLD-1) | IC50 ([10]; Homo sapiens, DU-4475, read-out: IC50 in cell proliferation assay, cell line DU4475 (BRAF p.V600E)) | IC50 ([10]; Homo sapiens, Daoy, read-out: IC50 in cell proliferation assay, cell line Daoy) | IC50 ([10]; Homo sapiens, DoTc2-4510, read-out: IC50 in cell proliferation assay, cell line DoTc2 4510) | IC50 ([10]; Homo sapiens, FaDu, read-out: IC50 in cell proliferation assay, cell line FaDu) | IC50 ([10]; Homo sapiens, HCC827, read-out: IC50 in cell proliferation assay, cell line HCC827 (EGFR exon19del)) | IC50 ([10]; Homo sapiens, HCC4006, read-out: IC50 in cell proliferation assay, cell line HCC4006 (EGFR exon19del)) | IC50 ([10]; Homo sapiens, HCT-15, read-out: IC50 in cell proliferation assay, cell line HCT 15) | IC50 ([10]; Homo sapiens, HCT-116, read-out: IC50 in cell proliferation assay, cell line HCT 116) | IC50 ([10]; Homo sapiens, HEC-1, read-out: IC50 in cell proliferation assay, HEC-1 cell line) | IC50 ([10]; Homo sapiens, HEC-1B, read-out: IC50 in cell proliferation assay, HEC-1-B cell line (EGFR p.A864V)) | IC50 ([10]; Homo sapiens, HL-60, read-out: IC50 in cell proliferation assay, HL-60 cell line) | IC50 ([10]; Homo sapiens, HT, read-out: IC50 in cell proliferation assay, HT cell line) | IC50 ([10]; Homo sapiens, HT-1080, read-out: IC50 in cell proliferation assay, HT-1080 cell line) | IC50 ([10]; Homo sapiens, Hs746T, read-out: IC50 in cell proliferation assay, Hs 746.T cell line (MET exon14skip + amplification)) | IC50 ([10]; Homo sapiens, J82, read-out: IC50 in cell proliferation assay, J82 cell line) | IC50 ([10]; Homo sapiens, Jurkat E6.1, read-out: IC50 in cell proliferation assay, Jurkat E6.1 cell line) | IC50 ([10]; Homo sapiens, K562, read-out: IC50 in cell proliferation assay, K-562 cell line) | IC50 ([10]; Homo sapiens, KLE, read-out: IC50 in cell proliferation assay, KLE cell line) | IC50 ([10]; Homo sapiens, KMS-11, read-out: IC50 in cell proliferation assay, KMS-11 cell line (FGFR3 p.Y373C)) | IC50 ([10]; Homo sapiens, KU812, read-out: IC50 in cell proliferation assay, Ku812 cell line) | IC50 ([10]; Homo sapiens, LC-2-ad, read-out: IC50 in cell proliferation assay, LC-2/ad cell line (CCDC6-RET)) | IC50 ([10]; Homo sapiens, LNCaP-Clone-FGC, read-out: IC50 in cell proliferation assay, LNCaP clone FGC cell line) | IC50 ([10]; Homo sapiens, LS174T, read-out: IC50 in cell proliferation assay, LS174T cell line) | IC50 ([10]; Homo sapiens, LS-411N, read-out: IC50 in cell proliferation assay, LS411N cell line (BRAF p.V600E)) | IC50 ([10]; Homo sapiens, LoVo, read-out: IC50 in cell proliferation assay, LoVo cell line) | IC50 ([10]; Homo sapiens, MDA-MB-231, read-out: IC50 in cell proliferation assay, MDA-MB-231 cell line) | IC50 ([10]; Homo sapiens, MDA-MB-453, read-out: IC50 in cell proliferation assay, MDA-MB-453 cell line) | IC50 ([10]; Homo sapiens, MDA-MB-468, read-out: IC50 in cell proliferation assay, MDA-MB-468 cell line) | IC50 ([10]; Homo sapiens, MG-63, read-out: IC50 in cell proliferation assay, MG-63 cell line)
0.228 µM: IC50 ([10]; Homo sapiens, Kasumi 1, read-out: IC50 in cell proliferation assay, Kasumi-1 cell line (KIT p.N822K))
3.48%: inhibition at 1 µM [8]
48%: inhibition at 1 µM [5]
-1.87%: inhibition at 1 µM [2]
24.1 µM: IC50 ([10]; Homo sapiens, A-427, read-out: IC50 in cell proliferation assay, cell line A-427)
0.935 µM: IC50 ([10]; Homo sapiens, A204, read-out: IC50 in cell proliferation assay, cell line A-204)
68%: inhibition at 1 µM [7]
-1.23%: inhibition at 1 µM [4]
6%: inhibition at 1 µM [9]
25.4 µM: IC50 ([10]; Homo sapiens, AU565, read-out: IC50 in cell proliferation assay, cell line AU565 (ERBB2 amplification))
22%: inhibition at 1 µM [6]
22.8 µM: IC50 ([10]; Homo sapiens, HuTu80, read-out: IC50 in cell proliferation assay, HuTu 80 cell line)
18.1 µM: IC50 ([10]; Homo sapiens, MCF7, read-out: IC50 in cell proliferation assay, MCF-7 cell line)
0.01 µM: IC50 ([10]; Homo sapiens, EOL1, read-out: IC50 in cell proliferation assay, cell line EoL-1 (FIP1L1-PDGFRA))
10%: inhibition at 1 µM [3]
10.1 µM: IC50 ([10]; Homo sapiens, KATO III, read-out: IC50 in cell proliferation assay, KATO III cell line (FGFR2 amplification))

From publication PMC9516332 (Frontiers in Oncology, 2022)
